Assay results as given in patent US8765107B2, “Process for straightening keratin fibres with a heating means and denaturing agents” (L'Oreal, priority 2006, dated 2014).

Test: hair relaxing with resorcinol under the conditions of M. Wong et al.
Conditions: resorcinol at a concentration of 40% and at a pH of 7
From the text: The use of resorcinol at a concentration of 40% and at a pH of 7 for relaxing the hair has been reported by M. Wong et al.: M. Wong, G. Vis-surel, and J. Epps J. Soc. Cosmet. Chem. (1994), 45, 347-352.

Oc1cccc(O)c1 [resorcinol]
relaxing of the hair: do not relax it, but lead, at the very best, to slight uncurling
